From patent publication US4540689A, “Penicillin derivative” (Kureha Kagaku Kogyo Kabushiki Kaisha, priority 1981, dated 1985)
Converted amounts (≈) assume the structure as drawn.

Key:
Streptococcus spp. = assay: Effect on intestinal bacterial colonies, Streptococcus count in feces; type: in vivo; settings: female ICR mice, oral 500 mg/kg/day for two days, first day after administration; before administration 6.8
Method: (§1) Effect of the present compounds on the intestinal bacterial colonies was examined.
(§2) Each of the present compounds was orally administered to mice (one group consisting of five female ICR mice of 6-week-old) for two consecutive days at a dose of 500 mg/kg/day.
(§3) Before and on the first day after the administration, feces of each mouse was collected and diluted with an anerobic diluent (phosphoric buffer solution) of 100 times volume and ground. 0.1 ml of the diluted and ground feces was smeared on each culture medium shown in Table 1 and cultured aerobically or anaerobically (according to the anaerobic glove box method) under each condition shown in Table 1.
TATAC agar aerobic, 37° C., one day

[1] = system: Escherichia coli IFO 12734; assay: Antibacterial activity (MIC), agar plate, E. coli; type: cell-based; settings: E. coli IFO 12734, Mueller-Hinton agar, 37° C., 18 to 24 hours; unit assumed
Method: (§4) Antibacterial activity of the present compounds was examined as follows.
(§5) Antibacterial activity of each of the present compounds was examined against the following two bacteria according to the standard method of Japan Society of Chemotherapy:
Escherichia coli IFO 12734 and
(§6) Each bacterial strain was inoculated into the Mueller-Hinton's culture medium and cultured at 37° C. for 18 to 48 hours. The culture medium was diluted so as to contain 1×10^6 cells of the bacteria per one ml, and the obtained medium was used as the bacterial specimen.
(§7) Agar plates were prepared by adding one part by weight of each solution of the present compounds having a predetermined concentration to nine parts by weight of Mueller-Hinton's culture medium.
(§8) A loopful amount of the bacterial specimen prepared above was smeared to make a streak of about 2 cm on each agar plate and cultured at 37° C. for 18 to 24 hours. The minimum concentration for completely inhibiting proliferation of the bacteria (referred as MIC) was determined.

Pseudomonas aeruginosa = assay: Effect on intestinal bacterial colonies, Ps. aeruginosa count in feces; type: in vivo; settings: female ICR mice, oral 500 mg/kg/day for two days, first day after administration; before administration <3.0
Method: as §1, §2, §3
NAC agar aerobic, 37° C., one day

[2] = system: Staphylococcus aureus IAM 1011; assay: Activation by rat liver homogenate (S-9 mix), penicillin cup proliferation-inhibiting circle; type: cell-based; settings: compound solution 100 μg/ml, ratio of circle diameter to conventional penicillin antibiotic; for Proliferation-inhibiting index (%), after adding S-9 mix: incubated with S-9 mix 37° C., 20 min; for Proliferation-inhibiting index (%), before adding S-9 mix: phosphoric buffer control without S-9
Method: As an enzyme for activating metabolism, a rat liver homogenate (S-9, manufactured by Oriental Yeast Company, Japan) was used in the following composition per one ml (hereinafter referred to as S-9 mix).
0.1 ml of each solution of the present compounds at a concentration of 100 μg/ml was mixed with 0.9 ml of S-9 mix or 0.9 ml of 0.1M phosphoric buffer solution (as a control) and the obtained mixture was incubated at 37° C. for 20 min with shaking.
Staphylococcus aureus IAM 1011 was inoculated into a Mueller-Hinton's culture medium and cultured at 37° C. for 18 hours. The culture medium was adjusted to a cell concentration of 1×10^8 per one ml and mixed with 50 times by volume of Mueller-Hinton's agar culture medium to obtain an agar plate.
A penicillin cup of 8 mm in diameter was placed on the agar plate prepared above, and into the cup 0.1 ml of the mixture was introduced and allowed to stand at 4° C. for 2 hours and then cultured at 37° C. for 18 hours to measure the diameter of a circle in which the proliferation of bacteria was inhibited (proliferation-inhibiting circle). In Table 4, the proliferation-inhibitingindex is shown with the ratio (%) of the diameter of the proliferation-inhibiting circle obtained by using each of the present compounds to that obtained by using the comparative compound (conventionalpenicillin antibiotic).

Lactobacillus bifidus = assay: Effect on intestinal bacterial colonies, L. bifidus count in feces; type: in vivo; settings: female ICR mice, oral 500 mg/kg/day for two days, first day after administration; before administration 8.4
Method: as §1, §2, §3
BS agar anaerobic, 37° C., five

Bacteroides = assay: Effect on intestinal bacterial colonies, Bacteroides count in feces; type: in vivo; settings: female ICR mice, oral 500 mg/kg/day for two days, first day after administration; before administration 8.3
Method: as §1, §2, §3
Bacteroides NBGT agar anaerobic, 37° C., five

[3] = system: Staphylococcus aureus IAM 1011; assay: Antibacterial activity (MIC), agar plate, Staph. aureus; type: cell-based; settings: Staph. aureus IAM 1011, Mueller-Hinton agar, 37° C., 18 to 24 hours; unit assumed
Method: as §4, §5
Staphylococcus aureus IAM 1011
as §6, §7, §8

[4] = system: Lactobacillus acidophilus; assay: Effect on intestinal bacterial colonies, L. acidophilus count in feces; type: in vivo; settings: female ICR mice, oral 500 mg/kg/day for two days, first day after administration; before administration 9.0
Method: as §1, §2, §3
Lactobacillus acidophilus
LBS agar anaerobic, 37° C., five

Escherichia coli = assay: Effect on intestinal bacterial colonies, E. coli count in feces; type: in vivo; settings: female ICR mice, oral 500 mg/kg/day for two days, first day after administration; before administration 6.4
Method: as §1, §2, §3
DHL agar aerobic, 37° C., one day

Structure (SMILES)	Logarithmic value of the number of bacterial cells per one gram of feces, Strept. spp. (Streptococcus spp.)	MIC, E. coli [1] [µg/mL]	Logarithmic value of the number of bacterial cells per one gram of feces, Ps. aeruginosa (Pseudomonas aeruginosa)	Proliferation-inhibiting index (%), after adding S-9 mix [2]	Proliferation-inhibiting index (%), before adding S-9 mix [2]	Logarithmic value of the number of bacterial cells per one gram of feces, L. bifidus (Lactobacillus bifidus)	Logarithmic value of the number of bacterial cells per one gram of feces, Bacteroides (Bacteroides)	MIC, Staph. aureus [3] [µg/mL]	Logarithmic value of the number of bacterial cells per one gram of feces, L. acidophilus [4]	Logarithmic value of the number of bacterial cells per one gram of feces, E. coli (Escherichia coli)
CC(=O)OC[C@H]1OC(OC(=O)[C@@H]2N3C(=O)[C@@H](NC(=O)COc4ccccc4)[C@H]3SC2(C)C)[C@H](OC(C)=O)[C@@H](OC(C)=O)[C@@H]1OC(C)=O (stereo partly drawn) [Example 1]	6.8 logarithmic value; cells per o	≥ 200	< 3.0 logarithmic value; cells per o	± (0-1)	- (0)	8.6 logarithmic value; cells per o	8.5 logarithmic value; cells per o	0.39 (≈ 0.573 µM)	9.1 logarithmic value; cells per o	7.2 logarithmic value; cells per o
COc1cccc(C=NC(C(=O)N[C@@H]2C(=O)N3[C@@H]2SC(C)(C)[C@@H]3C(=O)O)c2ccccc2)c1O (stereo partly drawn) [Example 2, sodium 6-(3-methoxysalicylaldehydeiminophenyl-glycino)penicillanate]	6.5 logarithmic value; cells per o	6.25	< 3.0 logarithmic value; cells per o	+++ (66-100)	++ (33-66)	8.3 logarithmic value; cells per o	8.3 logarithmic value; cells per o	0.1	8.8 logarithmic value; cells per o	6.4 logarithmic value; cells per o
CC1(C)S[C@@H]2[C@H](NC(=O)C(N=Cc3cc([N+](=O)[O-])ccc3O)c3ccccc3)C(=O)N2[C@H]1C(=O)O (stereo partly drawn) [Example 3]	6.8 logarithmic value; cells per o	12.5 (≈ 25.1 µM)	< 3.0 logarithmic value; cells per o	+++ (66-100)	++ (33-66)	8.4 logarithmic value; cells per o	8.2 logarithmic value; cells per o	0.78 (≈ 1.56 µM)	9.1 logarithmic value; cells per o	6.5 logarithmic value; cells per o
CC1(C)S[C@@H]2[C@H](NC(=O)C(N=Cc3ccccc3O)c3ccccc3)C(=O)N2[C@H]1C(=O)O (stereo partly drawn) [Example 4, sodium 6-(salicylaldehydeiminophenylglycino)penicillanate]	6.5 logarithmic value; cells per o	12.5	< 3.0 logarithmic value; cells per o	+++ (66-100)	++ (33-66)	8.8 logarithmic value; cells per o	8.2 logarithmic value; cells per o	0.78	8.8 logarithmic value; cells per o	6.4 logarithmic value; cells per o
CC1(C)S[C@@H]2[C@H](NC(=O)C(N=Cc3cc(Cl)ccc3O)c3ccccc3)C(=O)N2[C@H]1C(=O)O (stereo partly drawn) [Example 5, sodium 6-(5-chlorosalicylaldehydeiminophenylglycino)penicillanate]	6.6 logarithmic value; cells per o	6.25	3.3 logarithmic value; cells per o	+++ (66-100)	++ (33-66)	8.7 logarithmic value; cells per o	8.0 logarithmic value; cells per o	0.1	8.8 logarithmic value; cells per o	6.5 logarithmic value; cells per o
Cc1ncc(CO)c(C=NC(C(=O)N[C@@H]2C(=O)N3[C@@H]2SC(C)(C)[C@@H]3C(=O)O)c2ccccc2)c1O (stereo partly drawn) [Example 6]		≥ 100		+++ (66-100)	++ (33-66)			≥ 12.5		
CC(=O)Nc1ccc(C(=O)N[C@@H](C(=O)N[C@@H]2C(=O)N3[C@@H]2SC(C)(C)[C@@H]3C(=O)O)c2ccccc2)cc1 [Example 7, 7-[N-(p-acetylaminobenzoicamido)-D-phenylglycineamido]penicillanic acid]	6.4 logarithmic value; cells per o	≥ 100	< 3.0 logarithmic value; cells per o			8.2 logarithmic value; cells per o	8.0 logarithmic value; cells per o	≥ 12.5	9.0 logarithmic value; cells per o	6.5 logarithmic value; cells per o
CC(=O)Nc1ccc(C(=O)NCC(=O)N[C@@H](C(=O)N[C@@H]2C(=O)N3[C@@H]2SC(C)(C)[C@@H]3C(=O)O)c2ccccc2)cc1 [Example 8, 7-[N-(p-acetylaminohippuric acid amido)-O-phenylglycineamido]penicillanic acid]	6.7 logarithmic value; cells per o	≥ 100	< 3.0 logarithmic value; cells per o			8.5 logarithmic value; cells per o	8.1 logarithmic value; cells per o	≥ 12.5	9.2 logarithmic value; cells per o	6.4 logarithmic value; cells per o
CCOCOC(=O)[C@@H]1N2C(=O)[C@@H](NC(=O)COc3ccccc3)[C@H]2SC1(C)C [Example 10]	6.6 logarithmic value; cells per o	≥ 25	< 3.0 logarithmic value; cells per o			8.4 logarithmic value; cells per o	8.2 logarithmic value; cells per o	12.5 (≈ 30.6 µM)	9.0 logarithmic value; cells per o	6.4 logarithmic value; cells per o
